Counter-ions that a name gives are not always drawn.

Chain of rat 5-HT7 receptor (P32305 1-435): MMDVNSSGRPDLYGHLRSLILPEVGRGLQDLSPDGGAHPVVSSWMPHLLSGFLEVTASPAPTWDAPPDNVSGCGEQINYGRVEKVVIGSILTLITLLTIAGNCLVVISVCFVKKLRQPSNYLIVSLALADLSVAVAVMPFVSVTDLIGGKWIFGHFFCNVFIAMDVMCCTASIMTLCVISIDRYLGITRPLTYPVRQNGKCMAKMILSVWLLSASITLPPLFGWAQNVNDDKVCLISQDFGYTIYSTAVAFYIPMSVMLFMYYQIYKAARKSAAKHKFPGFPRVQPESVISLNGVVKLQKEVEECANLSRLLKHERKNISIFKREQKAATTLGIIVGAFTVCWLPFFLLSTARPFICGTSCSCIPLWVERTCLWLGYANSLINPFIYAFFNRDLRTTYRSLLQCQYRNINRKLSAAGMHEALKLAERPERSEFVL

The first experiment has as its target rat 5-HT7 receptor (Rattus norvegicus (Rat), UniProt P32305). The experiment can be described thus: r5-HT7 binding assay, competitive radioligand binding with [3H]5-CT. The settings on record: rat 5-HT7, HEK-293 membranes. As for the experimental part: Receptor binding was performed using membrane fractions prepared from the HEK-293 cell line recombinantly expressing rat 5-HT7 receptors (NCBI accession NM_022938). Compound affinity for the rat 5-HT7 receptor subtype was evaluated by competitive radioligand binding assays using 5-carboxamido[^3H]tryptamine ([^3H]5-CT) (Amersham Biosciences, cat. 90000403) detection. HitHunter™ cAMP assays are in-vitro based competitive immunoassays. The assay was performed on the HEK-293 cell line stably transfected with r5-HT7 receptor. Cells were pre-incubated with test compounds for 10 minutes. For antagonist testing, the cells were then challenged with 100 nM 5-CT for 20 minutes. Cells were then lysed and cAMP measured according to manufacturers protocol (Amersham, cat. NET791250UC) or [^3H]mesulergine (Amersham, cat. TRK1041). The assay was performed on membranes prepared from HEK-293 cells stably transfected with h5-HT6. Following centrifugation, membranes were resuspended and incubated for 60 min at room temperature with 1.7 nM [^3H]LSD in the presence of increasing concentration of test compounds. Nonspecific binding was defined in the presence of 10 μM clozapine (Tocris, cat. TRK1068). Homogenized HEK-293 membranes expressing the human SERT were incubated in 50 mM Tris-HCl (pH 7.5), 120 mM NaCl, 5 mM KCl with [^3H]-citalopram (3 nM) with or without test compounds. Nonspecific binding was determined in the presence of 10 μM fluoxetine. Radioactivity readouts and Ki values were performed as previously described for r5-HT7. […] Compounds were assayed in their free form or as salts, as indicated in the Examples section above.
For the compound `COc1cccc(C(=O)c2ccc(Br)cc2OC2CNC2)c1` [Example 286, [2-(Azetidin-3-yloxy)-4-bromo-phenyl]-(3-methoxy-phenyl)-methanone], the Ki (commonly a measure of affinity in units of concentration, obtained from inhibition or displacement) turned out to be 39 nM.

As to `CN1CC(Oc2cc(Br)ccc2C(=O)c2cccc(Cl)c2)C1` [Example 283, [4-Bromo-2-(1-methyl-azetidin-3-yloxy)-phenyl]-(3-chloro-phenyl)-methanone], the affinity corresponds to a Ki of 50 nM.

In turn, `OC1(COc2cc(Br)ccc2OCc2cccc(Cl)c2)CNC1` [Example 235, 3-[5-Bromo-2-(3-chloro-benzyloxy)-phenoxymethyl]-azetidin-3-ol] yielded a Ki of 665 nM.

The compound `O=C(c1ccc2ccccc2c1)c1ccc(Cl)cc1OC1CNC1` [Example 294, [2-(Azetidin-3-yloxy)-4-chloro-phenyl]-naphthalen-2-yl-methanone] gave a Ki of 72 nM. Compared with the last compound, the Ki is about 9.2-fold lower.

As for `CCc1noc(COc2ccc(Cl)cc2OC2CNC2)n1` [Example 243, 5-[2-(Azetidin-3-yloxy)-4-chloro-phenoxymethyl]-3-ethyl-[1,2,4]oxadiazole hydrochloride], the Ki is 461 nM.

Take `COc1cccc(Oc2ccc(Br)cc2OC2CNC2)c1` [Example 248, 3-[5-Bromo-2-(3-methoxy-phenoxy)-phenoxy]-azetidine]: the Ki was 43 nM.

In turn, `Brc1ccc(Oc2ccc3ccccc3c2)c(OC2CNC2)c1` [Example 254, 3-[5-Bromo-2-(naphthalen-2-yloxy)-phenoxy]-azetidine] yielded a Ki of 19 nM.

For `Clc1ccc(Oc2ccc3cccnc3n2)c(OC2CNC2)c1` [Example 263, 2-[2-(Azetidin-3-yloxy)-4-chloro-phenoxy]-[1,8]naphthyridine], affinity was put at a Ki of 544 nM. Against the preceding compound, the Ki is about 29-fold higher.

`O=C(c1ccc(Cl)cc1)c1ccc(Cl)cc1OC1CNC1` [Example 297, [2-(Azetidin-3-yloxy)-4-chloro-phenyl]-(4-chloro-phenyl)-methanone]: the affinity corresponds to a Ki of 150 nM.

Turning to `Fc1ccc(Oc2ccc(Br)cc2OC2CNC2)cc1` [Example 249, 3-[5-Bromo-2-(4-fluoro-phenoxy)-phenoxy]-azetidine], the affinity, expressed as Ki, was 20 nM. This Ki is about 7.5-fold lower than that of the compound before.

In the case of `CC(C)N1CC(Oc2ccc(Cl)cc2OC2CNC2)C1` [Example 224, 3-[5-Chloro-2-(1-Isopropyl-azetidin-3-ol)-phenoxy]-azetidine], the Ki is 68 nM.

`O=C(c1ccc2c(c1)OCO2)c1ccc(Cl)cc1OC1CNC1` [Example 295, [2-(Azetidin-3-yloxy)-4-chloro-phenyl]-benzo[1,3]dioxol-5-yl-methanone] registered a Ki of 226 nM. This Ki lies about 3.3-fold higher than the previous one.

In the case of `Clc1ccc(OCc2nc(C3CC3)no2)c(OC2CNC2)c1` [Example 241, 5-[2-(Azetidin-3-yloxy)-4-chloro-phenoxymethyl]-3-cyclopropyl-[1,2,4]oxadiazole hydrochloride], the Ki was 263 nM.

For the compound `Clc1ccc(Oc2ccccc2)c(OC2CNC2)c1` [Example 256, 3-(5-Chloro-2-phenoxy-phenoxy)-azetidine], the inhibitory constant (Ki) came out at 160 nM.

As to `O=C(c1ccccc1)c1ccc(Br)cc1OC1CNC1` [Example 280], the affinity, expressed as Ki, was 98 nM. Compared with the last compound, the Ki is about 1.6-fold lower.

Regarding `O=C(c1ccc(Cl)c(F)c1)c1ccc(Br)cc1OC1CNC1` [Example 292, [2-(Azetidin-3-yloxy)-4-bromo-phenyl]-(4-chloro-3-fluoro-phenyl)-methanone], the inhibition constant (Ki) is 74 nM.

For `O=C(c1ccc(Cl)c(Cl)c1)c1ccc(Br)cc1OC1CNC1` [Example 293, [2-(Azetidin-3-yloxy)-4-bromo-phenyl]-(3,4-dichloro-phenyl)-methanone], the Ki stood at 51 nM.

The same experiment, now with this note: rat 5-HT7 receptor, HEK-293 membranes.
The compound `Fc1cccc(COc2ccc(Br)cc2OC2CN(C3CCC3)C2)c1` [Example 21, 3-[5-Bromo-2-(3-fluoro-benzyloxy)-phenoxy]-1-cyclobutyl-azetidine] came in with a Ki of 20 nM.

`CC(Oc1ccc(Cl)cc1OC1CNC1)c1ccc(C(F)(F)F)c(F)c1` (racemic) [Example 118, (±)-3-[5-Chloro-2-[1-(3-fluoro-4-trifluoromethyl-phenyl)-ethoxy]-phenoxy]-azetidine]: the affinity, expressed as Ki, was 90 nM. Compared with the last compound, the Ki is about 4.5-fold higher.

As for `Clc1ccc(OCC2Cc3ccccc3O2)c(OC2CNC2)c1` (stereo not drawn) [Example 169, 3-[5-Chloro-2-(2,3-dihydro-benzofuran-2-ylmethoxy)-phenoxy]-azetidine], the Ki was found to be 119 nM.

For `CS(=O)(=O)c1cc(Cl)ccc1COc1ccc(Cl)cc1OC1CNC1` [Example 56, 3-[5-Chloro-2-(4-chloro-2-methanesulfonyl-benzyloxy)-phenoxy]-azetidine], the Ki amounted to 9000 nM. Compared with the last compound, the Ki is about 76-fold higher.

The compound `CN1CC(Oc2cc(Br)ccc2OCc2ccccc2Cl)C1` [Example 16, 3-[5-Bromo-2-(2-chloro-benzyloxy)-phenoxy]-1-methyl-azetidine] came in with a Ki of 100 nM.

For `CN1CCC(Oc2cc(Br)ccc2OCc2cccc(F)c2)C1` (racemic) [Example 97, (±)-3-[5-Bromo-2-(3-fluoro-benzyloxy)-phenoxy]-1-methyl-pyrrolidine], affinity was put at a Ki of 34 nM. This Ki is about 2.9-fold lower than that of the compound before.

In the case of `CC(C)(C)c1ccc2c(c1)CCC2Oc1ccc(Br)cc1OC1CNC1` (stereo not drawn) [Example 162, 3-[5-Bromo-2-(5-tert-butyl-indan-1-yloxy)-phenoxy]-azetidine], the affinity corresponds to a Ki of 5000 nM. Compared with the last compound, the Ki is about 150-fold higher.

For the compound `CN1CCC(Oc2cc(Br)ccc2OCc2cccc(Cl)c2)C1` (racemic) [Example 95, (±)-3-[5-Bromo-2-(3-chloro-benzyloxy)-phenoxy]-1-methyl-pyrrolidine], the Ki turned out to be 9 nM.

The compound `FC(F)(F)c1ccc(COc2ccc(Cl)cc2OC2CNC2)cn1` [Example 82, 5-[2-(Azetidin-3-yloxy)-4-chloro-phenoxymethyl]-2-trifluoromethyl-pyridine] displayed a Ki of 198 nM.

The compound `CC(C)N1CC(Oc2cc(Br)ccc2OCc2cccc(F)c2)C1` [Example 20, 3-[5-Bromo-2-(3-fluoro-benzyloxy)-phenoxy]-1-isopropyl-azetidine] had an inhibition constant Ki of 8 nM. Compared with the last compound, the Ki is about 25-fold lower.

For the compound `CC(Oc1ccc(Cl)cc1OC1CNC1)c1ccccc1Cl` (racemic) [Example 116, (±)-3-[5-Chloro-2-[1-(2-chloro-phenyl)-ethoxy]-phenoxy]-azetidine], the Ki turned out to be 68 nM.

The compound `Fc1cc(C(F)(F)F)ccc1COc1ccc(Cl)cc1OC1CNC1` [Example 48, 3-[5-Chloro-2-(2-fluoro-4-trifluoromethyl-benzyloxy)-phenoxy]-azetidine] registered a Ki of 88 nM.

Regarding `CC(Oc1ccc(Cl)cc1OC1CNC1)c1cc(F)ccc1F` (racemic) [Example 130, (±)-3-[5-Chloro-2-[1-(2,5-difluoro-phenyl)-ethoxy]-phenoxy]-azetidine trifluoroacetate], the Ki is 371 nM.

Take `CCC(Oc1ccc(Cl)cc1OC1CNC1)c1ccccc1` (stereo not drawn) [Example 147, 3-[5-Chloro-2-(1-phenyl-propoxy)-phenoxy]-azetidine]: affinity was put at a Ki of 211 nM. This Ki lies about 1.8-fold lower than the previous one.

On to `Clc1ccc(OCc2ccccc2)c(OC2CCNCC2)c1` [Example 62, 4-(2-Benzyloxy-5-chloro-phenoxy)-piperidine], for which the affinity corresponds to a Ki of 34 nM.

As for `FC(F)(F)c1ccc(COc2ccc(Cl)cc2OC2CCCNC2)o1` (racemic) [Example 69, (±)-3-[5-Chloro-2-(5-trifluoromethyl-furan-2-ylmethoxy)-phenoxy]-piperidine], affinity was put at a Ki of 94 nM. This Ki lies about 2.8-fold higher than the previous one.

For `O=C(COc1ccc(Cl)cc1OC1CNC1)c1ccc(Cl)cc1` [Example 183, 2-[2-(Azetidin-3-yloxy)-4-chloro-phenoxy]-1-(4-chloro-phenyl)-ethanone], the Ki is 110 nM.

For the compound `CN1CCC(Oc2cc(Br)ccc2OCc2cccc(OS(C)(=O)=O)c2)C1` (racemic) [Example 99, (±)-Methanesulfonic acid 3-[4-bromo-2-(1-methyl-pyrrolidin-3-yloxy)-phenoxymethyl]-phenyl ester], the Ki was 5 nM. Compared with the last compound, the Ki is about 22-fold lower.

As to `CC(C)N1CC(Oc2cc(F)ccc2OCc2cccc(Cl)c2)C1` [Example 204, 3-[2-(3-Chloro-benzyloxy)-5-fluoro-phenoxy]-1-isopropyl-azetidine], the Ki worked out at 27 nM.

Compound `Fc1ccc(OCc2cccc(Cl)c2)c(OC2CN(C3CCC3)C2)c1` [Example 205, 3-[2-(3-Chloro-benzyloxy)-5-fluoro-phenoxy]-1-cyclobutyl-azetidine] had a Ki of 27 nM.

For the compound `Cc1nc(C)c(C(C)Oc2ccc(Cl)cc2OC2CNC2)s1` (stereo not drawn) [Example 134, 5-[1-[2-(Azetidin-3-yloxy)-4-chloro-phenoxy]-ethyl]-2,4-dimethyl-thiazole], the affinity, expressed as Ki, was 3830 nM.

Consider `CN(C)C(=O)c1ccc(OCc2cccc(Cl)c2)c(OC2CNC2)c1` [Example 211, 3-(Azetidin-3-yloxy)-4-(3-chloro-benzyloxy)-N,N-dimethyl-benzamide], for which the Ki stood at 9000 nM. This Ki lies about 2.3-fold higher than the previous one.

Regarding `Fc1cccc(COc2ccc(Br)cc2OC2CN(c3ccccc3)C2)c1` [Example 172, 3-[5-Bromo-2-(3-fluoro-benzyloxy)-phenoxy]-1-phenyl-azetidine], affinity was put at a Ki of 5000 nM.

For the compound `CC(Oc1ccc(Cl)cc1OC1CCNCC1)c1ccccc1F` (racemic) [Example 138, (±)-4-[5-Chloro-2-[1-(2-fluoro-phenyl)-ethoxy]-phenoxy]-piperidine], the affinity corresponds to a Ki of 42 nM. Against the preceding compound, the Ki is about 120-fold lower.

`Brc1ccc(OCC2CCCCC2)c(OC2CNC2)c1` [Example 74, 3-(5-Bromo-2-cyclohexylmethoxy-phenoxy)-azetidine] gave a Ki of 11 nM.

(Values after US9981909B2 (Janssen Pharmaceutica NV, priority 2008, dated 2018).)
